The record followed here is PubChem BioAssay (NCI).

Molecules are shown by their SMILES. Where “and” joins values, the source holds several entries; their conditions need not be identical. Equal entries are not always repeated.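 Cultured in 96-well plates, cells were exposed to test compound for 48 hours across five concentrations. At the GI50, growth is halved. TGI: concentration producing complete growth inhibition.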

Test in all cases: inhibition of tumour cell growth, NCI panel, 48 h
Test [1] concerns A498 renal.
Test [2] concerns NCI/ADR-RES ovarian.
Test [3] has as its system MALME-3M melanoma.
Test [4] deals with SNB-75 CNS.
Test [5] deals with MDA-MB-435.
Test [6] relates to HOP-62 NSCLC.
Test [7] concerns NCI-H226 lung.
Test [8] concerns SK-MEL-2 melanoma.
For test [9], the system named is CCRF-CEM leukemia.
The subject of test [10] is UACC-62 melanoma.

On to `COC1(OC)C[C@H](C)[C@@]23O[C@]24c2cc(O)c5c(c2N[C@H]3C#C/C=C\C#C[C@]14O)C(=O)c1ccccc1C5=O`, for which the GI50 is 5 nM in [1]; 2.23 nM in test [2]; less than 1 nM in test [3]; 2.8 nM in [4]; 0.0184 µM in test [5]; less than 1 nM in test [6]. Also, the GI50 in test [8] was 359 nM and 59.3 nM; in test [9], 5 nM; in test [10], 2.04 nM. In addition, the TGI was 0.00964 µM and 0.0459 µM in [1]; 0.00927 µM and 0.0318 µM in test [4]; 0.139 µM and 0.175 µM in test [5]; 0.00216 µM and 0.0173 µM in test [6]; 0.00755 µM in [7]; 0.355 µM in test [8]. For the same compound, the TGI in test [9] was 0.00572 µM and 0.0539 µM; in test [10], 0.0359 µM and 0.0324 µM.
Consider `O=C1c2ccccc2-c2ccc(O)cc21`, for which the TGI in test [1] was 41.8 µM; in test [2], 84.5 µM; in test [3], 49.2 µM; in test [4], greater than 100 µM; in test [5], 59.6 µM; in test [6], greater than 100 µM. Moreover, the values for the TGI in test [7], in [8] and in test [10] were greater than 100 µM, 46.5 µM and 30.9 µM, respectively.
Turning to `CO[C@@]12C[C@@H](CNC(=O)c3cc(Br)c[nH]3)O[C@@H]1NC(=O)N2`, the TGI in test [1], in test [2], in test [3], in test [4], in test [5] and in test [6] was greater than 100 µM in each case. For the same compound, the TGI in [7], in test [8], in test [9] and in test [10] was greater than 100 µM each time.
For `COc1ccc(/C=c2/[nH]c(=O)/c(=C\c3ccc(OCc4ccccc4)cn3)[nH]c2=O)cc1`, the TGI was greater than 100 µM in test [1]; greater than 100 µM in [2]; greater than 100 µM in [3]; 61 µM in [4]; greater than 100 µM in test [5]; greater than 100 µM in test [6]. Besides, the TGI in [7], in test [8], in [9] and in test [10] was greater than 100 µM each time.
On to `O=C1c2scnc2-c2nccc3c2c1nc1ccccc13`, for which the TGI was 2.52 µM in test [1]; greater than 100 µM in [2]; 1.51 µM in test [3]; 1.92 µM in test [4]; 0.307 µM in [5]; 8.18 µM in test [6]. Also, the results for the TGI in test [8], in test [9] and in test [10] were 4.34 µM, greater than 100 µM and 1.45 µM, respectively.
Take `COc1nc(C#CCCCC#N)nc(OC)n1`: the TGI in test [1] is 37.6 µM; in test [2], greater than 100 µM; in [3] it was 28.5 µM; in test [4], 75.7 µM; in test [5] it was 27.7 µM; in test [6], 48.7 µM. Further, the TGI was found to be 32.2 µM in test [8] and 22.8 µM in test [10].
As for `CCn1cc(C(=O)O)c(=O)c2cc(F)c(N3CCN(Cn4c(O)c(N=NC(=O)c5ccncc5)c5cc(Cl)ccc54)CC3)cc21`, the TGI in test [1] is greater than 100 µM; in test [2], greater than 100 µM; in [3], greater than 100 µM; in test [4], 70.1 µM; in test [5], greater than 100 µM; in [6] it was 55.2 µM. The TGI was greater than 100 µM in test [7], 60.9 µM in test [8] and greater than 100 µM in test [10].
Turning to `CN1CCC23c4ccccc4NC1C21CCN(C)C3Nc2ccccc21`, the TGI was greater than 375 µM in [1]; greater than 375 µM in test [2]; greater than 337 µM in test [3]; greater than 375 µM in test [4]; greater than 375 µM in test [6]; greater than 209 µM in test [7]. Besides, the TGI in test [8] was greater than 375 µM; in test [9], greater than 188 µM; in [10], greater than 375 µM.
With `CC(=O)C1(c2ccccc2)CCCN(C)CC1` (stereo unspecified), the TGI in [1], in [2], in [3], in [4], in test [5] and in [6] was greater than 100 µM in each case. Besides, the TGI in test [7], in [8], in test [9] and in test [10] was greater than 100 µM in each case.
For `O=C1CS(=O)(=O)C(c2cccc(Oc3ccccc3)c2)N1c1cccc(Cl)c1Cl` (stereo unspecified), the TGI in test [3] is 59.5 µM; in test [4], 92.3 µM; in [5] it was 48.8 µM; in [6], greater than 100 µM; in test [7], greater than 100 µM; in [8], 40.1 µM. Further, the TGI in [9] is greater than 100 µM; in test [10], 30.7 µM.
On to `O=c1c2c([nH]c3nccn13)CCCC2`, for which the TGI in test [1], in [2], in test [3], in test [4], in test [5] and in test [6] was greater than 10 µM in each case. The TGI in [7], in test [8], in test [9] and in test [10] was greater than 10 µM each time.
For `COc1ccc(OC)c2sc(N3C(=O)/C(=C/c4ccccc4S)N=C3c3ccccc3)nc12`, the TGI in test [1] is greater than 100 µM; in test [2], greater than 100 µM; in test [4], 57.2 µM; in test [5] it was 52 µM; in test [6] it was greater than 100 µM; in test [8], 78.8 µM. For the same compound, the figures for the TGI in test [9] and in [10] were 42.5 µM and 52.2 µM, respectively.
On to `Cc1c(N)nc([C@H](CC(N)=O)NC[C@H](N)C(N)=O)nc1C(=O)N[C@H](C(=O)N[C@H](C)[C@@H](O)[C@H](C)C(=O)N[C@H](C(=O)NCCc1nc(-c2nc(C(=O)NCCC[S+](C)C)cs2)cs1)[C@@H](C)O)C(OC1OC(CO)C(O)C(O)C1OC1OC(CO)C(O)C(OC(N)=O)C1O)c1cnc[nH]1` (stereo partly specified), for which the TGI is 19.6 µM and 29 µM and 41.5 µM in test [1]; 12.8 µM and 4.87 µM and 5.61 µM in [2]; 9.03 µM and 22.9 µM and 20.7 µM in test [3]; 6.42 µM and 13.4 µM and 18.8 µM in [4]; 25 µM and > 100 µM in [5]; 25 µM [middle of 4 runs] in test [9]. Moreover, the GI50 is 1210 nM and 1090 nM in [2]; 750 nM and 1650 nM in test [3]; 5980 nM and 1060 nM in test [4]; 25.3 µM in [5].
For the compound `O=C(O)C(Cc1ccccc1)N1C(=O)c2ccccc2C1=O` (stereo unspecified), the TGI in test [1], in test [2], in [3], in test [5], in [6] and in test [7] was greater than 100 µM throughout. For the same compound, the TGI in test [8] was greater than 100 µM; in [9] it was 65.1 µM; in [10], greater than 100 µM.
